From patent publication US11813355B2, “Curcumin-loaded nanoemulsions, method of manufacture, and method of preventive treatment using the same” (UNIVERSIDAD DE CHILE, priority 2016, dated 2023)
In brackets after ≈: the same amount, converted by molar mass.

Key:
[1] = tested on: Metastatic B16F10 murine melanoma cells; test: Viability assay (MTS), B16F10 cells; type: cell-based; settings: Mus musculus, B16-F10, B16F10, 24 h treatment, read-out: IC50, decrease of proliferation/viability
Protocol: Metastatic B16F10 murine melanoma cells were cultured in RPMI 1640 (Roswell Park Memorial Institute) supplemented with 10% FBS, 2 mM glutamine, and antibiotics (100 U/mL penicillin and 100 μg/mL streptomycin) at 37° C. in 5% CO2.
The cultured metastatic B16F10 murine melanoma cells and cultured human embryonic kidney cells (HEK293T) were seeded in 96-well plates at a density of 1×10^4 cells per well and incubated for 24 h in culture medium. […] 2% Sodium dodecyl sulfate (SDS) and a standard cell medium were used as positive and negative cell controls, respectively. Cell proliferation was evaluated by the MTS® assay, according to the manufacturer's (Promega, Madison, WI) instructions. Absorbance was evaluated at 490 nm removing any background absorbance (620 nm) in plate reader (Tecan Infinite 200 pro NanoQuant).

[2] = tested on: uterine cervical cancer cell line HeLa; test: Viability assay (CellTiter 96 MTS), HeLa cells; type: cell-based, human
Protocol: To further determine the effect of the formulation on cell viability, the calorimetric method of tetrazolium salt reduction (CellTiter 96®) was used to establish a linear relationship between the number of metabolically active cells and the absorption intensity. […] 2500 HeLa cells were seeded per well, in a 96-well microplate, and the cells were incubated with 100 μL of Dulbecco's Modified Eagle Medium (DMEM) culture medium enriched with 10% fetal bovine serum (FBS), at 37° C. and 5% CO2. The day after seeding, the 100 μL of medium was removed, and it was replaced by 80 μL of clean culture medium. Then 20 μL of a treatment was applied, and the cells were incubated under the same temperature and CO2 conditions. 24 hours after the treatment was applied, the treatment was removed, the cells were subsequently washed three (3) times with phosphate-buffered saline (PBS), and 80 μL of medium without indicator was added to the cells and 20 μL of MTS. The cells were incubated for 1 hour, and the absorbance was measured at a wavelength of 490 nm in a microplate reader. […] Each assay was performed in triplicate. In addition, within each assay the same treatment was applied to a minimum of 5 wells.

[3] = tested on: B16F10 (murine melanoma); settings: B16F10, 48-hour exposure; read-out: CI50 (the source's name); cited from earlier work
[4] = Persistence of curcumin fluorescence at the treatment site after tumor excision; type: in vivo, mice; settings: post-surgery
[5] = tested on: HeLa; settings: read-out: CI50 (the source's name); cited from earlier work
[6] = tested on: B16F10 cells; test: Matrigel invasion assay; type: cell-based, murine; settings: normalized to untreated control
Protocol: B16F10 cells (5×10^4) were seeded, allowed to grow for 24 h, and treated with CUR-NEM, CUR and controls. Then, serum-starved cells (2×10^5) were seeded (24 h) over 8 μm-porous inserts covered with Matrigel (Matrigel Invasion Chamber 8.0 lm; BD Biosciences Bedford, MA, USA). […] The membranes were mounted in Mowiol, and observed under a light microscope. At least 10 fields were evaluated (at 40× magnification) to determine the number of cells per field. The values obtained were normalized to those obtained for cells without treatment (control). Averages of values from three independent experiments are shown (mean±SEM). Statistically significant differences compared with the corresponding control group are indicated (**P<0.001; ****<0.0001). Metastasis is a complex process that is known to require migration and invasion of malignant cells.

[7] = tested on: U937 (monoblastic leukemia); settings: U937, 48-hour exposure; read-out: CI50 (the source's name); cited from earlier work
[8] = tested on: HL-60 (promyelocytic leukemia); settings: HL-60, 48-hour exposure; read-out: CI50 (the source's name); cited from earlier work
[9] = tested on: Molt4 (human acute lymphoblastic leukemia); settings: Molt4, 48-hour exposure; read-out: CI50 (the source's name); cited from earlier work
[10] = tested on: K562 (erythroleukemia); settings: K562, 48-hour exposure; read-out: CI50 (the source's name); cited from earlier work

In the case of `COc1cc(C=CC(=O)CC(=O)C=Cc2ccc(O)c(OC)c2)ccc1O` [curcumin, 1,7-bis(4-hydroxy-3methoxyphenyl)-1,6-heptadien-3,5-dione], the IC50 [1] is reported as 34.8 ± 7.5 µg/mL (≈ 94.5 µM), the IC50 ([2]; Homo sapiens, 24-hour exposure, MTS, read-out: CI50 (the source's name)) is reported as 61.8 ± 18.1 µM and the “Concentration of maximum effectiveness (cytotoxicity)” value ([2]; after 24-hour exposure) is reported as 50 µM. The IC50 [3] was about 3.5 µM, the “Curcumin fluorescence over basal levels, four (4) days after treatment” value [4] was “not detectable” and the IC50 [5] was 13.3 µM. The Reduction in invasiveness [6] was 10 fold, the IC50 [7] was about 30.1 µM and the IC50 [8] was about 15.7 µM. For the same compound, the IC50 [9] was about 14.4 µM and the IC50 [10] was about 38.7 µM.
